What was measured:
rat CPB model [1] = experiment: Standardized functional neurologic (neuromotor) testing after CPB; format: in vivo; conditions: for neurologic outcome, difference among groups: 12th postoperative day
Description: The methodology of the CPB model used in the current study has been previously reported (Anesthesiology 2001, 95:1485-91). Briefly, anesthesia was induced in male Sprague-Dawley rats (12-14 weeks, 350-380 gm; Harlan, Indianapolis, Ind.) with 5% isoflurane in oxygen-enriched air in a plastic box. Following orotracheal intubation with a 14-gauge cannula, the lungs were mechanically ventilated (40% O2/balance N2) to maintain a PaCO2 of 36-42 mmHg. During surgical preparation, anesthesia was maintained with 2.0-2.5% isoflurane and the rectal and pericranial temperatures were monitored and servo-controlled at 37.5±0.1° C. (YSI 400 series thermistor and 73ATA Indicating controller; YSI, Yellow Springs, Ohio) with a heating blanket and convective forced-air heating system. The superficial caudal epigastric artery, a branch of a femoral artery, was cannulated with PE-10 tubing for monitoring mean arterial pressure (MAP). During cardiopulmonary bypass (CPB) rats were anesthetized with fentanyl (30 μg/kg, i.v.), midazolam (0.4 mg/kg, i.v.) and atracurium (0.5 mg/kg, i.v.) as a bolus of injection and followed by a continuous infusion of the mixture of three with a syringe pump (2.5 μg/kg/min for fentanyl, 0.03 mg/kg/min for midazolam and 0.08 mg/kg/min for atracurium). Pilot studies had been confirmed that with this anesthetic regimen, the animals had enough depth of anesthesia during CPB.
The CPB circuit (FIG. 2) consisted of a venous reservoir, a peristaltic pump and a membrane oxygenator, all of which were connected via 1.6 mm internal diameter silicone tubing (Tygon®; Cole-Parmer Instrument Co., Vernon Hills, Ill.). The CPB circuit was primed with approximately 40 ml of whole blood obtained prior to the start of the experiment from two heparinized (100IU/rat, i.v.) donor rats (275-320 gm) which were exsanguinated under isoflurane anesthesia. The drained blood traversed a warmed venous reservoir (jacketed with circulating water from a heat pump) to a peristaltic pump (Masterflex®; Cole-Parmer Instrument Co., Vernon Hills, Ill.) to a membrane oxygenator (a modified Cobe Micro® neonatal oxygenator with a surface area of 0.33 m^2; Cobe Cardiovascular, Inc., Arvada, Colo.). A closed-circuit gas delivery system fed the appropriate gas into the oxygenator after which blood was inflsed back into the rat. An in-line flow probe (2N806 flow probe and T208 volume flowmeter; Transonics Systems, Inc., Ithaca, N.Y.) was used to continuously measure CPB flow. Arterial line inflow temperature was maintained at 37.5° C. using a circulating water bath system. The venous oxygen saturation from the venous return line was measured continuously using an Oximetrix® Monitor and Opticath® Catheter (Abbot Laboratories, North Chicago, Ill.). Arterial blood gases were performed using a IL 1306 blood gas analyzer (Instrument Laboratories, Inc., Lexington, Mass.) with hemoglobin determined using an OSM3 Hemoximeter® (Radiometer Inc., Copenhagen, Denmark).
After complete of all surgical procedures as described as above, rats were randomly divided into one of four groups. […] CPB group: rats (n=10) were subjected to 60 min of non-pulsatile CPB with a membrane oxygenator receiving a mixture of 30% O2 and 65% N2. CPB+MK801 group: rats (n=10) received MK801 (0.15 mg/kg, i.v.) 15 min prior to 60 min of CPB with similar concentrations of gases as in group 2. The dose of MK801 was chosen from pilot studies, in which its side effect can be kept at minmal level. CPB+Xenon group: rats (n=10) underwent 60 min of CPB with a membrane oxygenator receiving a mixture of 30% O2 and 60% xenon. […]

rat CPB model [2] = experiment: Morris water maze neurocognitive testing after CPB; format: in vivo; conditions: 10 postoperative days; speeds 4.7 to 6.2 inch/sec
Description: The methodology of the CPB model used in the current study has been previously reported (Anesthesiology 2001, 95:1485-91). Briefly, anesthesia was induced in male Sprague-Dawley rats (12-14 weeks, 350-380 gm; Harlan, Indianapolis, Ind.) with 5% isoflurane in oxygen-enriched air in a plastic box. Following orotracheal intubation with a 14-gauge cannula, the lungs were mechanically ventilated (40% O2/balance N2) to maintain a PaCO2 of 36-42 mmHg. During surgical preparation, anesthesia was maintained with 2.0-2.5% isoflurane and the rectal and pericranial temperatures were monitored and servo-controlled at 37.5±0.1° C. (YSI 400 series thermistor and 73ATA Indicating controller; YSI, Yellow Springs, Ohio) with a heating blanket and convective forced-air heating system. […]
The CPB circuit (FIG. 2) consisted of a venous reservoir, a peristaltic pump and a membrane oxygenator, all of which were connected via 1.6 mm internal diameter silicone tubing (Tygon®; Cole-Parmer Instrument Co., Vernon Hills, Ill.). […] The venous oxygen saturation from the venous return line was measured continuously using an Oximetrix® Monitor and Opticath® Catheter (Abbot Laboratories, North Chicago, Ill.). Arterial blood gases were performed using a IL 1306 blood gas analyzer (Instrument Laboratories, Inc., Lexington, Mass.) with hemoglobin determined using an OSM3 Hemoximeter® (Radiometer Inc., Copenhagen, Denmark). […]

rat CPB model [3] = experiment: General behavioural changes after emergence from anesthesia; format: in vivo; conditions: MK801 0.15 mg/kg i.v.
Method: After complete of all surgical procedures as described as above, rats were randomly divided into one of four groups. […] CPB group: rats (n=10) were subjected to 60 min of non-pulsatile CPB with a membrane oxygenator receiving a mixture of 30% O2 and 65% N2. CPB+MK801 group: rats (n=10) received MK801 (0.15 mg/kg, i.v.) 15 min prior to 60 min of CPB with similar concentrations of gases as in group 2. The dose of MK801 was chosen from pilot studies, in which its side effect can be kept at minmal level. CPB+Xenon group: rats (n=10) underwent 60 min of CPB with a membrane oxygenator receiving a mixture of 30% O2 and 60% xenon.
All animals were able to drink and to eat after emergence.

[4] = tested on: mouse neuronal/glial co-culture; experiment: LDH release from neuronal/glial co-culture, temperature variation study; format: cell-based; conditions: xenon concentration (% atm)
Method: The effects of xenon as a neuroprotectant were investigated at normal body temperature (37° C.) and at a lower temperature (33° C.), for example, as may pertain during CPB. The study was based on measuring LDH release from a mouse neuronal/glial co-culture in accordance with the method described in WO 01/08692 (in the name of Imperial College of Science, Technology and Medicine).

[5] = 1st postoperative day, CPB group 5.2±1.5, sham 7.6±0.8
[6] = 3rd postoperative day, CPB group 5.8±1.8, sham 8.3±0.7

Compound	neurologic outcome (functional neurologic score, zero to nine scale, best score=9) (rat CPB model [1]; [5])	neurologic outcome (functional neurologic score, zero to nine scale, best score=9) (rat CPB model [1]; [6])	neurologic outcome, difference among groups (rat CPB model [1])	swimming speeds, difference among groups (rat CPB model [2])	duration of behavioural disturbances (rat CPB model [3])	general behavioural changes (rat CPB model [3])	EC50 for reduction of LDH release ([4]; 33° C.)	EC50 for reduction of LDH release ([4]; 37° C.)
C[C@]12N[C@H](Cc3ccccc31)c1ccccc12 [MK801]	6.2±1.4	7.4±1.8	no difference	no significant differences	1 to 2 h	hyperactivity, head weaving and related disturbances of motor coordination	–	–
[Xe] [xenon]	8.3±0.5	8.9±0.2	no difference	no significant differences	–	–	11.5+/−2.0%	35.9+/−2.2%

From patent US7442383B2, “Use of xenon for the control of neurological deficits associated with cardiopulmonary bypass” (Protexeon Limited, priority 2002, dated 2008)
